Reference: PubChem BioAssay (NCI)
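Tested at 5 concentrations; 48 h exposure; 96-well plates; endpoints linearly interpolated, else capped at highest concentration. The concentration for 50% growth inhibition is given as GI50. At the TGI there is no net growth.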

Experiments:
Assay in all cases: NCI anticancer screen, dose series, 48 h
[1] = tested on: KM12 colon
[2] = tested on: T-47D breast
[3] = tested on: A549 NSCLC
[4] = tested on: SW-620 colon
[5] = tested on: M14 melanoma
[6] = tested on: HT29 colon
[7] = tested on: SK-MEL-2 melanoma
[8] = tested on: NCI/ADR-RES ovarian
[9] = tested on: OVCAR-5 ovarian
[10] = tested on: OVCAR-3 ovarian

SMILES: CCCCCCCCN(CCCCCCCC)CCCCCCNc1cc(OC)cc2cccnc12
- GI50 [1]: 6.81 µM
- TGI [1]: 20 µM
- GI50 [2]: 12.1 µM
- TGI [2]: 27.5 µM
- GI50 [3]: 16.3 µM
- TGI [3]: 34.8 µM
- GI50 [4]: 2.75 µM
- TGI [4]: 10.1 µM
- GI50 [5]: 3.33 µM
- TGI [5]: 12.4 µM
- GI50 [6]: 3.63 µM
- TGI [6]: 15.9 µM
- GI50 [7]: 5.8 µM
- TGI [7]: 19.1 µM
- GI50 [8]: 10.4 µM
- TGI [8]: 23.4 µM
- GI50 [9]: 15.3 µM
- TGI [9]: 29.6 µM
- GI50 [10]: 2.01 µM
- TGI [10]: 4.09 µM

SMILES: COc1cc2nc(SCC(=O)Nc3cc(OC)c(OC)c(OC)c3)n(Cc3ccccc3)c(=O)c2cc1OC
- GI50 [1]: > 100 µM
- TGI [1]: > 100 µM
- GI50 [2]: 6.57 µM
- TGI [2]: > 100 µM
- GI50 [3]: 5.13 µM
- TGI [3]: > 100 µM
- GI50 [4]: > 100 µM
- TGI [4]: > 100 µM
- GI50 [5]: 16.1 µM
- TGI [5]: > 100 µM
- GI50 [6]: 16.6 µM
- TGI [6]: 38.7 µM
- GI50 [7]: 3.41 µM
- TGI [7]: 10.6 µM
- GI50 [8]: 3.3 µM
- TGI [8]: 11.6 µM
- GI50 [9]: > 100 µM
- TGI [9]: > 100 µM
- GI50 [10]: 7.68 µM
- TGI [10]: 50.3 µM

SMILES: COc1ccc(C(SCC(N)C(=O)O)(c2ccccc2)c2ccccc2)cc1 (stereo not given)
- GI50 [1]: 0.239 µM
- TGI [1]: 21.3 µM
- GI50 [2]: 0.409 µM
- TGI [2]: > 100 µM
- GI50 [3]: 0.594 µM
- TGI [3]: > 100 µM
- GI50 [4]: 0.0745 µM
- TGI [4]: > 100 µM
- GI50 [5]: 0.0309 µM
- TGI [5]: 0.126 µM
- GI50 [6]: 0.429 µM
- TGI [6]: > 100 µM
- GI50 [7]: 5.03 µM
- TGI [7]: > 79.5 µM
- GI50 [8]: 2.12 µM
- TGI [8]: 33.7 µM
- GI50 [9]: 4.82 µM
- TGI [9]: > 100 µM
- GI50 [10]: 0.0677 µM
- TGI [10]: 0.503 µM

SMILES: O=C1c2ccccc2S(=O)(=O)N1CSC(=S)N1CCCCC1
- GI50 [1]: > 55.7 µM
- TGI [1]: > 100 µM
- GI50 [2]: > 100 µM
- TGI [2]: > 100 µM
- GI50 [3]: > 100 µM
- TGI [3]: > 100 µM
- GI50 [4]: > 100 µM
- TGI [4]: > 100 µM
- GI50 [5]: > 100 µM
- TGI [5]: > 100 µM
- GI50 [6]: > 29.2 µM
- TGI [6]: > 100 µM
- GI50 [7]: > 100 µM
- TGI [7]: > 100 µM
- GI50 [8]: > 100 µM
- TGI [8]: > 100 µM
- GI50 [9]: > 100 µM
- TGI [9]: > 100 µM
- GI50 [10]: > 100 µM
- TGI [10]: > 100 µM

SMILES: NC1CCC(Nc2nc(NCc3ccc(-c4cccs4)nc3)c3ncn(C4CCCC4)c3n2)CC1 (stereo not given)
- GI50 [1]: 0.0285 µM
- TGI [1]: 0.743 µM
- GI50 [2]: 0.033 µM
- TGI [2]: 0.699 µM
- GI50 [3]: 0.0237 µM
- TGI [3]: 2.04 µM
- GI50 [4]: < 0.0152 µM
- TGI [4]: 2.03 µM
- GI50 [5]: 0.0258 µM
- TGI [5]: 0.337 µM
- GI50 [6]: < 0.0143 µM
- TGI [6]: 0.315 µM
- GI50 [7]: 0.0908 µM
- TGI [7]: 0.288 µM
- GI50 [8]: 0.244 µM
- TGI [8]: 4.29 µM
- GI50 [9]: 0.0302 µM
- TGI [9]: 2.58 µM
- GI50 [10]: 0.0492 µM
- TGI [10]: 0.731 µM
